Drawing on patent publication US10407422B2, “Triazolopyridine inhibitors of myeloperoxidase” (priority 2015, dated 2019), this text covers IC50 for 30 compounds.

Test [1] deals with T1, myeloperoxidase (MPO) (Homo sapiens (Human), UniProt P05164). The test can be described thus: MPO chlorination assay (APF assay). In kind it is biochemical. Particulars: potency range class. The method, then: [formula] where A=minimal Y value (activity level of inhibited sample), B=maximal Y value (activity level of uninhibited sample), C=Log IC50, D=Hill Slope, x=concentration of inhibitor. MPO Chlorination Assay (APF Assay) MPO chlorination activity was measured in 100 mM KPi (pH 7.4) by utilizing the non-fluorescent reagent Aminophenyl fluorescein (APF, Invitrogen Cat. #A36003). APF is cleaved by (—OCl) to yield the fluorescent compound fluorescein. Reactions were carried out in 50 μL total volume by adding a 25 μL mixture of 200 pM myeloperoxidase and 120 mM NaCl to 100 nL inhibitor in 100% DMSO in a 384 well, non-binding surface clear bottom plate (Corning #3655). Enzyme, inhibitor, and chloride were preincubated for ten minutes at room temperature. After the ten minute preincubation, 25 μL of an APF mixture containing […], 120 mM NaCl and 10 μM H2O2 was added to the plate using the internal dispensing system of a Hammatsu FDSS 6000. Kinetic determinations were carried out immediately on the FDSS 6000 (3 minute kinetic read, 1 read every second, ex: 485 nm, em: 535 nm). IC50 values for inhibitors were calculated by taking the slope of the linear portion of the kinetic measurement (20 seconds to ˜80-120 secs). IC50 values were calculated by determining the slope of the linear portion of the kinetic trace […], and using that calculated slope to determine % inhibition occurring at each concentration of inhibitor using the following equation: [formula] where A=minimal Y value (activity level of inhibited sample), B=maximal Y value (activity level of uninhibited sample), C=Log IC50, D=Hill Slope, x=concentration of inhibitor. EPX Bromination Assay
T1 sequence (P05164 49-745): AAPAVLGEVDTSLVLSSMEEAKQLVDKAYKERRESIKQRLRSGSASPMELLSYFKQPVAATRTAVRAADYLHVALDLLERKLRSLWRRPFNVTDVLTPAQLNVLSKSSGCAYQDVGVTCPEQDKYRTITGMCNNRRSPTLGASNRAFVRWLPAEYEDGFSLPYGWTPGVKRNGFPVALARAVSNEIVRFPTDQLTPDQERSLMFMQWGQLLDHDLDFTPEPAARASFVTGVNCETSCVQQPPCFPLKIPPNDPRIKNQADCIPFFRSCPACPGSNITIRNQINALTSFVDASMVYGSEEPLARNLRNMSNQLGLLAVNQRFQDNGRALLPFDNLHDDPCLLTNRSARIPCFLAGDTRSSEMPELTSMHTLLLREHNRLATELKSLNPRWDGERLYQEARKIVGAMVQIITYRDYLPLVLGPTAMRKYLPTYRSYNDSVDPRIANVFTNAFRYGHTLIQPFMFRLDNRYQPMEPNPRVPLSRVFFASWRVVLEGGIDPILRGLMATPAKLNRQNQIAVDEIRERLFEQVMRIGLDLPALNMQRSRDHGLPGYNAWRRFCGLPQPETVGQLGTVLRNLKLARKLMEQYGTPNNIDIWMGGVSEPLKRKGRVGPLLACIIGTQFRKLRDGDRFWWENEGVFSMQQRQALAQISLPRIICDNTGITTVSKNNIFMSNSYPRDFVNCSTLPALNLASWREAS

Test [2] concerns the target T1, myeloperoxidase (MPO). The test can be described thus: MPO peroxidation assay (Amplex Red assay). In kind it is biochemical. The following applies: potency range class. On the procedure:
MPO Peroxidation Assay (Amplex Red Assay) MPO peroxidation activity was measured in 100 mM KPi (pH 7.4) by utilizing the non-fluorescent reagent Amplex Red (Invitrogen Cat. #A12222) which can be oxidized to the highly fluorescent resorufin. Amplex Red is oxidized by the peroxidase action of MPO to resorufin. Reactions were carried out in 50 μL total volume by adding a 25 μL mixture of 200 pM myeloperoxidase and 40 nM H2O2(Sigma #349887) to 100 nL inhibitor in 100% DMSO in a 384 well Perkin Elmer Optiplate. Enzyme and compound were preincubated for ten minutes at room temperature. After the ten minute preincubation, 25 μL of an Amplex Red mixture containing 200 μM Amplex Red and 10 mM H2O2 was added to the plate. Kinetic determinations were carried out immediately on a Perkin Elmer Envision (15 minute kinetic read, Ex: 535 nm, Em: 590 nm). IC50 values were calculated by determining the slope of the linear portion of the kinetic trace (180-540 secs), and using that calculated slope to determine % inhibition occurring at each concentration of inhibitor using the following equation: [formula] where A=minimal Y value (activity level of inhibited sample), B=maximal Y value (activity level of uninhibited sample), C=Log IC50, D=Hill Slope, x=concentration of inhibitor. MPO Chlorination Assay (APF Assay)

For orientation: IC50 means the concentration that inhibits the measured activity by half. Lower therefore signals greater potency in that assay. Regarding `Nc1cc(Cc2cnn(Cc3cccc(C4CCNC4)c3)c2)c2nn[nH]c2n1` (stereo in doubt) [Example 191, 7-{[1-({3-[(3S)-Pyrrolidin-3-yl]phenyl}yl]methyl}-3H-[1,2,3]triazolo[4,5-b]pyridin-5-amine], the IC50 on myeloperoxidase (MPO) [1] and against myeloperoxidase (MPO) [2] was 0.001 to 0.1 µM each time.

As to `Cc1c(Cc2cc(N)nc3[nH]nnc23)cnn1-c1ccc(F)cc1` [Example 2, 7-((1-(4-Fluorophenyl)-5-methyl-1H-pyrazol-4-yl)methyl)-3H-triazolo[4,5-b]pyridin-5-amine], the IC50 on myeloperoxidase (MPO) [1] and on myeloperoxidase (MPO) [2] was 0.101 to 0.999 µM in each case.

On to `Nc1cc(Cc2cnn(-c3cccc(F)c3)c2)c2nn[nH]c2n1` [Example 3, 7-((1-(3-Fluorophenyl)-1H-pyrazol-4-yl)methyl)-3H-[1,2,3]triazolo[4,5-b]pyridin-5-amine], for which the 50% inhibitory concentration (IC50) against myeloperoxidase (MPO) [1] is 0.101 to 0.999 µM; against myeloperoxidase (MPO) [2], 0.001 to 0.1 µM.

`Nc1cc(Cc2cnn(-c3ccccc3F)c2)c2nn[nH]c2n1` [Example 4, 7-((1-(2-Fluorophenyl)-1H-pyrazol-4-yl)methyl)-3H-[1,2,3]triazolo[4,5-b]pyridin-5-amine]: the IC50 on myeloperoxidase (MPO) [1] and on myeloperoxidase (MPO) [2] was 0.001 to 0.1 µM throughout.

In turn, `Nc1cc(Cc2cnn(-c3ccc(Br)cc3)c2)c2nn[nH]c2n1` [Example 8, 7-((1-(4-Bromophenyl)-1H-pyrazol-4-yl)methyl)-3H-[1,2,3]triazolo[4,5-b]pyridin-5-amine] registered an IC50 against myeloperoxidase (MPO) [2] of 0.001 to 0.1 µM.

For `Nc1cc(Cc2cnn(-c3ccc4ccccc4c3)c2)c2nn[nH]c2n1` [Example 12, 7-((1-(Naphthalen-2-yl)-1H-pyrazol-4-yl)methyl)-3H-[1,2,3]triazolo[4,5-b]pyridin-5-amine], at myeloperoxidase (MPO) [2], the IC50 fell in the range of 0.101 to 0.999 µM.

`Cc1ccc(-n2cc(Cc3cc(N)nc4[nH]nnc34)cn2)c2ccccc12` [Example 13, 7-((1-(4-Methylnaphthalen-1-yl)-1H-pyrazol-4-yl)methyl)-3H-[1,2,3]triazolo[4,5-b]pyridin-5-amine]: at myeloperoxidase (MPO) [2], the IC50 lay in the range of 0.001 to 0.1 µM.

Turning to `Nc1cc(Cc2cnn(-c3cccc(C4CC4)c3)c2)c2nn[nH]c2n1` [Example 15, 7-((1-(3-Cyclopropylphenyl)-1H-pyrazol-4-yl)methyl)-3H-[1,2,3]triazolo[4,5-b]pyridin-5-amine], the IC50 at myeloperoxidase (MPO) [2] was 0.001 to 0.1 µM.

For the compound `Nc1cc(Cc2cnn(-c3cccc4cccnc34)c2)c2nn[nH]c2n1` [Example 16, 7-((1-(Quinolin-8-yl)-1H-pyrazol-4-yl)methyl)-3H-[1,2,3]triazolo[4,5-b]pyridin-5-amine], the IC50 against myeloperoxidase (MPO) [2] fell in the range of 0.101 to 0.999 µM.

At myeloperoxidase (MPO) [2], `Nc1cc(Cc2cnn(-c3ccc(F)cn3)c2)c2nn[nH]c2n1` [Example 17, 7-((1-(5-Fluoropyridin-2-yl)-1H-pyrazol-4-yl)methyl)-3H-[1,2,3]triazolo[4,5-b]pyridin-5-amine] registered an IC50 of 0.001 to 0.1 µM.

Compound `Nc1cc(Cc2cnn(-c3cncc4ccccc34)c2)c2nn[nH]c2n1` [Example 18, 7-((1-(Isoquinolin-4-yl)-1H-pyrazol-4-yl)methyl)-3H-[1,2,3]triazolo[4,5-b]pyridin-5-amine] came in with an IC50 against myeloperoxidase (MPO) [2] of 0.001 to 0.1 µM.

For `Nc1cc(Cc2cnn(-c3cncc(F)c3)c2)c2nn[nH]c2n1` [Example 22, 7-((1-(5-Fluoropyridin-3-yl)-1H-pyrazol-4-yl)methyl)-3H-[1,2,3]triazolo[4,5-b]pyridin-5-amine], at myeloperoxidase (MPO) [2], the IC50 lay in the range of 0.101 to 0.999 µM.

Take `COc1cccc(-n2cc(Cc3cc(N)nc4[nH]nnc34)cn2)c1` [Example 23, 7-((1-(3-Methoxyphenyl)-1H-pyrazol-4-yl)methyl)-3H-[1,2,3]triazolo[4,5-b]pyridin-5-amine]: at myeloperoxidase (MPO) [2], the IC50 was 0.001 to 0.1 µM.

`Cc1ccc(-n2cc(Cc3cc(N)nc4[nH]nnc34)cn2)cc1` [Example 26, 7-((1-(4-Methylphenyl)-1H-pyrazol-4-yl)methyl)-3H-[1,2,3]triazolo[4,5-b]pyridin-5-amine]: the IC50 at myeloperoxidase (MPO) [2] lay in the range of 0.101 to 0.999 µM.

As for `COc1ccc(-n2cc(Cc3cc(N)nc4[nH]nnc34)cn2)cc1` [Example 27, 7-((1-(4-Methoxyphenyl)-1H-pyrazol-4-yl)methyl)-3H-[1,2,3]triazolo[4,5-b]pyridin-5-amine], the IC50 against myeloperoxidase (MPO) [2] was in the range of 0.101 to 0.999 µM.

On myeloperoxidase (MPO) [2], `COc1ccccc1-n1cc(Cc2cc(N)nc3[nH]nnc23)cn1` [Example 28, 7-((1-(2-Methoxyphenyl)-1H-pyrazol-4-yl)methyl)-3H-[1,2,3]triazolo[4,5-b]pyridin-5-amine] displayed an IC50 of 0.101 to 0.999 µM.

`Nc1cc(Cc2cnn(-c3cccc(Br)c3)c2)c2nn[nH]c2n1` [Example 29, 7-((1-(3-Bromophenyl)-1H-pyrazol-4-yl)methyl)-3H-[1,2,3]triazolo[4,5-b]pyridin-5-amine]: the 50% inhibitory concentration (IC50) against myeloperoxidase (MPO) [2] was in the range of 0.001 to 0.1 µM.

As to `Nc1cc(Cc2cnn(-c3cccnc3)c2)c2nn[nH]c2n1` [Example 30, 7-((1-(Pyridin-3-yl)-1H-pyrazol-4-yl)methyl)-3H-[1,2,3]triazolo[4,5-b]pyridin-5-amine], the IC50 against myeloperoxidase (MPO) [2] is 0.001 to 0.1 µM.

The compound `COc1cc(-n2cc(Cc3cc(N)nc4[nH]nnc34)cn2)ccn1` [Example 32, 7-((1-(2-Methoxypyridin-4-yl)-1H-pyrazol-4-yl)methyl)-3H-[1,2,3]triazolo[4,5-b]pyridin-5-amine] yielded an IC50 at myeloperoxidase (MPO) [2] of 0.101 to 0.999 µM.

`COc1ccc2cccc(-n3cc(Cc4cc(N)nc5[nH]nnc45)cn3)c2c1` [Example 35, 7-((1-(7-Methoxynaphthalen-1-yl)-1H-pyrazol-4-yl)methyl)-3H-[1,2,3]triazolo[4,5-b]pyridin-5-amine]: the IC50 on myeloperoxidase (MPO) [2] is 0.001 to 0.1 µM.

At myeloperoxidase (MPO) [2], `Nc1cc(Cc2cnn(-c3cccc(OCc4ccccc4)c3)c2)c2nn[nH]c2n1` [Example 37, 7-((1-(3-(Benzyloxy)phenyl)-1H-pyrazol-4-yl)methyl)-3H-[1,2,3]triazolo[4,5-b]pyridin-5-amine] had an IC50 of 0.001 to 0.1 µM.

`Nc1cc(Cc2cnn(-c3ccc(=O)[nH]c3)c2)c2nn[nH]c2n1` [Example 38, 5-(4-((5-Amino-3H-[1,2,3]triazolo[4,5-b]pyridin-7-yl)methyl)-1H-pyrazol-1-yl)pyridin-2(1H)-one] yielded an IC50 against myeloperoxidase (MPO) [2] of 0.101 to 0.999 µM.

In turn, `Nc1cc(Cc2cnc(-c3ccc(F)cc3)s2)c2nn[nH]c2n1` [Example 47, 7-((2-(4-Fluorophenyl)thiazol-5-yl)methyl)-3H-[1,2,3]triazolo[4,5-b]pyridin-5-amine] registered a half-maximal inhibitory concentration (IC50) on myeloperoxidase (MPO) [2] of 0.101 to 0.999 µM.

Take `Nc1cc(Cc2ccc(-c3ccccc3)s2)c2nn[nH]c2n1` [Example 49, 7-((5-Phenylthiophen-2-yl)methyl)-3H-[1,2,3]triazolo[4,5-b]pyridin-5-amine]: at myeloperoxidase (MPO) [2], the IC50 fell in the range of 0.001 to 0.1 µM.

`Cc1cc(Cc2cc(N)nc3[nH]nnc23)sc1C` [Example 50, 7-((4,5-Dimethylthiophen-2-yl)methyl)-3H-[1,2,3]triazolo[4,5-b]pyridin-5-amine] gave a concentration for half-maximal inhibition (IC50) against myeloperoxidase (MPO) [2] of 0.101 to 0.999 µM.

Regarding `Nc1cc(Cc2ccc(-c3ccccn3)s2)c2nn[nH]c2n1` [Example 51, 7-((5-(Pyridin-2-yl)thiophen-2-yl)methyl)-3H-[1,2,3]triazolo[4,5-b]pyridin-5-amine], the half-inhibitory concentration (IC50) against myeloperoxidase (MPO) [2] lay within 0.001 to 0.1 µM.

As for `CS(=O)(=O)c1ccc(Cn2cc(Cc3cc(N)nc4[nH]nnc34)cn2)cc1` [Example 58, 7-((1-(4-(Methylsulfonyl)benzyl)-1H-pyrazol-4-yl)methyl)-3H-[1,2,3]triazolo[4,5-b]pyridin-5-amine], the IC50 at myeloperoxidase (MPO) [2] fell in the range of 0.101 to 0.999 µM.

For `CC(c1ccccc1)n1cc(Cc2cc(N)nc3[nH]nnc23)cn1` (stereo not shown) [Example 63, 7-((1-(1-Phenylethyl)-1H-pyrazol-4-yl)methyl)-3H-[1,2,3]triazolo[4,5-b]pyridin-5-amine], the IC50 at myeloperoxidase (MPO) [2] was 0.001 to 0.1 µM.

As for `Nc1cc(Cc2ccc(C(F)(F)F)o2)c2nn[nH]c2n1` [Example 70, 7-{[5-(Trifluoromethyl)furan-2-yl]methyl}-3H-[1,2,3]triazolo[4,5-b]pyridin-5-amine], the IC50 against myeloperoxidase (MPO) [2] fell in the range of 1 to 10 µM.

On to `NC(=O)c1ccc(Cn2cc(Cc3cc(N)nc4[nH]nnc34)cn2)cc1` [Example 73, 4-((4-((5-Amino-3H-[1,2,3]triazolo[4,5-b]pyridin-7-yl)methyl)-1H-pyrazol-1-yl)methyl)benzamide], for which, on myeloperoxidase (MPO) [2], the IC50 lay in the range of 1 to 10 µM.
